From ChEMBL document CHEMBL1201862, “PubChem BioAssay data set” (2004)
Active and inactive are the calls of the source.

Assays:
[1] = target: Paired box protein Pax-8 (Homo sapiens, UniProt Q06710); assay: inhibitors of PAX8-driven TPO luciferase reporter, dose response, RMG-I cells, cherry-pick (AID 687027); assay type: functional, cell-based;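 also: luciferase reporter driven by Pax8 target thyroperoxidase promoter measured by SteadyGlo luminescence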
[2] = Luminescence Cell-Based Dose Retest to Confirm Inhibitors of Cancer Stem Cells. [Related pubchem assays (depositor defined):AID2717, AID2721]; assay type: functional; conditions: Homo sapiens
[3] = target: T1, Cytochrome P450 1A2 (Homo sapiens, UniProt P05177);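 also: PubChem cytochrome P450 panel assay, CYP1A2 panel member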
T1 sequence (P05177 whole entry): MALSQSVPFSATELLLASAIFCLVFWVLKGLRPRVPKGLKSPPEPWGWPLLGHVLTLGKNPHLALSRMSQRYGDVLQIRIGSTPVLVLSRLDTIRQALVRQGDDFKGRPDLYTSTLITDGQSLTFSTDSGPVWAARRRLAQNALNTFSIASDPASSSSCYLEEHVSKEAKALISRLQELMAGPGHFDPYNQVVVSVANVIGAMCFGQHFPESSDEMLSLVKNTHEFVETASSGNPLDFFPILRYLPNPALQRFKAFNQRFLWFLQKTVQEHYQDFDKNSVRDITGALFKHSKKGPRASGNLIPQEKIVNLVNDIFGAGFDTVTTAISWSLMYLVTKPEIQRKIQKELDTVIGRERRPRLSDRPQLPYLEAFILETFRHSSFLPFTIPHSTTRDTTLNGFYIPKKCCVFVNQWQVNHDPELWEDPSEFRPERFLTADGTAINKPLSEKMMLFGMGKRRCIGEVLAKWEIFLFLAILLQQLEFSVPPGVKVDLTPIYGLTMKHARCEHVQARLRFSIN

[4] = target: Cytochrome P450 2C19 (Homo sapiens, UniProt P33261); assay: Cytochrome panel assay with activity outcomes. Panel member name: p450-cyp2c19 Compounds with AC50 equal or less than 10 uM are considered active; assay type: functional
Chain of Cytochrome P450 2C19 (P33261 whole entry): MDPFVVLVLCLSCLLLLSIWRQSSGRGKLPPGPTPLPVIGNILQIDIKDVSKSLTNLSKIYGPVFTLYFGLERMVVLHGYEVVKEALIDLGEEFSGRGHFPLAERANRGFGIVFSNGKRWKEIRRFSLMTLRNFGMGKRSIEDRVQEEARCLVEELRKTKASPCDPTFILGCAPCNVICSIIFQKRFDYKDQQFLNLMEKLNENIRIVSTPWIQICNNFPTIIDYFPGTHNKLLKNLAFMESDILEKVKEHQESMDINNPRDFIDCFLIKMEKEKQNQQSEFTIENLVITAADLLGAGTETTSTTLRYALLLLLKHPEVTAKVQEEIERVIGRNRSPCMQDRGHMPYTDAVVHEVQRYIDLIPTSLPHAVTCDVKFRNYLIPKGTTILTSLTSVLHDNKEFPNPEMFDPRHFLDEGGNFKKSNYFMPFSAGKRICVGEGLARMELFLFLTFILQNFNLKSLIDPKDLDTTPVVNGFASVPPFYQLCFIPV

[5] = target: Cytochrome P450 2C9 (Homo sapiens, UniProt P11712)
Chain of Cytochrome P450 2C9 (P11712 whole entry): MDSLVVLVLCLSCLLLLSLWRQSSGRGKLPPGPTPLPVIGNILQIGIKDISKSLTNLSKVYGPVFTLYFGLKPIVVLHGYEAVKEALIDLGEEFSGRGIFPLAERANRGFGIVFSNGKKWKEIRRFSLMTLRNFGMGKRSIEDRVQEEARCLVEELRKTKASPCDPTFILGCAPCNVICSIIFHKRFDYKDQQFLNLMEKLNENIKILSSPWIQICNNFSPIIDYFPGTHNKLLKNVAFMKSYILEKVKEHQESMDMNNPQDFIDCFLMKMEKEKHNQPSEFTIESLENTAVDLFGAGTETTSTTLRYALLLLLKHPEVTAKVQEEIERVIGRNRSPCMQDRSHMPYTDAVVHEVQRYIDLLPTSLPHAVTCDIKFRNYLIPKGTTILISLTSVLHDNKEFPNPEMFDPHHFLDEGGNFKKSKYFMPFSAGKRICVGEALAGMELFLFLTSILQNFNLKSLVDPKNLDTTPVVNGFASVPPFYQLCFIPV

[6] = target: Cytochrome P450 3A4 (Homo sapiens, UniProt P08684);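 also: CYP3A4 tested as one member of a cytochrome P450 panel screen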
Chain of Cytochrome P450 3A4 (P08684 whole entry): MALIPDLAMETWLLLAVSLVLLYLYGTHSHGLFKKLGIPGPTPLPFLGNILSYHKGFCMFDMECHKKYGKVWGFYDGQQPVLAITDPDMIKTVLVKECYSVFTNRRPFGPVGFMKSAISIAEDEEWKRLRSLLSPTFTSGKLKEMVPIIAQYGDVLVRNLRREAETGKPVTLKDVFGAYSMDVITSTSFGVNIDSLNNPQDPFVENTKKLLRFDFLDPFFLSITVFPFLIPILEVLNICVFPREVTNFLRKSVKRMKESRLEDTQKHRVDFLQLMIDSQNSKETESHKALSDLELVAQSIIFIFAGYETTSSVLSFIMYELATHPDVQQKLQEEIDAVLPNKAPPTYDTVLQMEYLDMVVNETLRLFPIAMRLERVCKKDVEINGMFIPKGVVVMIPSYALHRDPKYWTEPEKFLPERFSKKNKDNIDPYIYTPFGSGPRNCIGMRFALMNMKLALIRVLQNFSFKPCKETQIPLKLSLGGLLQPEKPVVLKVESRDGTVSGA

[7] = target: Cytochrome P450 2D6 (Homo sapiens, UniProt P10635);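 also: CYP2D6 member of a cytochrome P450 panel assay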
Chain of Cytochrome P450 2D6 (P10635 whole entry): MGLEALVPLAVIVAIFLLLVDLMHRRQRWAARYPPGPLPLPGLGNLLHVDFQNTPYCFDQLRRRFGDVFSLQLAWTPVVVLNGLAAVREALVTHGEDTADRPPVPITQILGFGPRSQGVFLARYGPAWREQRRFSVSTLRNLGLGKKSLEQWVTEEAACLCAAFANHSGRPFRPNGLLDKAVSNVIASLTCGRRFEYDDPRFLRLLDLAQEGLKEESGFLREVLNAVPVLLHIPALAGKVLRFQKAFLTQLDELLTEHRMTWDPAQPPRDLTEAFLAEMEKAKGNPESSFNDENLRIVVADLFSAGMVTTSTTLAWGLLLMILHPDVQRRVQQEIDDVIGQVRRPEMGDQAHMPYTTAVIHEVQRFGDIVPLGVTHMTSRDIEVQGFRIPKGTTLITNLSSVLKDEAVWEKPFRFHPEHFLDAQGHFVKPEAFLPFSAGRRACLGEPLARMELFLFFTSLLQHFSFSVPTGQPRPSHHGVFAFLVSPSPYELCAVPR

[8] = Luminescence Cell-Based Dose Confirmation HTS to Identify Inhibitors of Platelet Dense Granule Release. [Related pubchem assays: 1663 (Primary HTS), 1678 (Summary of Project)]; assay type: functional
[9] = target: Luciferin 4-monooxygenase (Photinus pyralis, UniProt P08659); assay: firefly luciferase enzyme inhibitors, dose response, biochemical, luminescence (AID 1891)
Chain of Luciferin 4-monooxygenase (P08659 whole entry): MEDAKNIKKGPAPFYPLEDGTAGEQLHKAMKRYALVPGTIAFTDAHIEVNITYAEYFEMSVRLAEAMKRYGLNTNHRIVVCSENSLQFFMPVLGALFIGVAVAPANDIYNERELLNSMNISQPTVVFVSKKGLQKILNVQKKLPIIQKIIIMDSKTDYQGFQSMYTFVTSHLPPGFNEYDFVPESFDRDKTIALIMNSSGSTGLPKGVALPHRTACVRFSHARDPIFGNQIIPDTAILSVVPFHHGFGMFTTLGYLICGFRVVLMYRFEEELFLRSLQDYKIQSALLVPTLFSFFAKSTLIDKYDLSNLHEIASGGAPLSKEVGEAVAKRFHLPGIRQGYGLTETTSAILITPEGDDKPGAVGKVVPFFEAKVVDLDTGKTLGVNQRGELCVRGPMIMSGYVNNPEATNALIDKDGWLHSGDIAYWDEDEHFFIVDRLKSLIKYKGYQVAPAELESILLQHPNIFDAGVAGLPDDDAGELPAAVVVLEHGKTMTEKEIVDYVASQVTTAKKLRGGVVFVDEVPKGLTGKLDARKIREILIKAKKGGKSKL

[10] = Shn3 3'UTR reporter inhibitors, dose response, cell-based, Clone20 osteoblasts, firefly luciferase, cherry-picked (AID 624132); assay type: functional;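 also: firefly luciferase luminescence from reporter carrying the Shn3 3'UTR in osteoblasts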
[11] = control 3'UTR Renilla luciferase suppression, dose response, counter-screen for Shn3 inhibitor project, cell-based, Clone20-Shn3RL, cherry-picked (AID 624133); assay type: functional
[12] = Luminescence Cell-Based Dose Response HTS to Identify Activators of Luciferase Translation or Activity in H4 […] Cells. [Related pubchem assays: 1829 (Project Summary), 1814 (Primary HTS)]; assay type: functional
[13] = Luminescence Cell-Based Dose Confirmation HTS to Identify Activators of 5'UTR Stem-Loop Driven Alpha-Synuclein mRNA Translation in H4 Neuroglioblastoma Cells. [Related pubchem assays: 1829 (Project Summary), 1814 (Primary HTS)]; assay type: functional
[14] = tested on: H4; assay: Luminescence Cell-Based Dose Response HTS to Identify Activators of 5'UTR Stem-Loop Driven Prion Protein mRNA Translation in H4 Neuroglioblastoma Cells. [Related pubchem assays: 1829 (Project Summary), 1814 (Primary HTS)]; assay type: functional; conditions: Homo sapiens
[15] = target: T2, Zinc finger protein mex-5 (Caenorhabditis elegans, UniProt Q9XUB2); assay: MEX-5/TCR-2 RNA interaction inhibitors, dose response, biochemical, C. elegans, fluorescence polarization (AID 1960)
T2 sequence (Q9XUB2 whole entry): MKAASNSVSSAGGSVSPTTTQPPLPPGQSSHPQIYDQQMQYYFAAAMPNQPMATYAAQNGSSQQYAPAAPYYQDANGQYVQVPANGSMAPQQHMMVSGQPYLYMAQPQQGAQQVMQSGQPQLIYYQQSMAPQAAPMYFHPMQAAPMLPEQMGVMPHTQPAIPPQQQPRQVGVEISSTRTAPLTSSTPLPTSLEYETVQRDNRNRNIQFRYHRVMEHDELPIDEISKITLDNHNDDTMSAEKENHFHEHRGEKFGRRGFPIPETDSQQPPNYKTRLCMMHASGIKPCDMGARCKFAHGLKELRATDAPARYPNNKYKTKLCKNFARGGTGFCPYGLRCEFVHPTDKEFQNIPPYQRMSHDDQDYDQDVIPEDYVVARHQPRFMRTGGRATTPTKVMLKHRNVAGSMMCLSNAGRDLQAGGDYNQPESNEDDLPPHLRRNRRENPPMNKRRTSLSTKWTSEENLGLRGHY

[16] = target: T3, RNA-binding protein pos-1 (Caenorhabditis elegans, UniProt G5EF15); assay: inhibitors of POS-1/mex-3 RNA binding, dose response, biochemical, fluorescence polarization (AID 1964);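 also: purified POS-1 fused to maltose binding protein made in E. coli; potency of compounds blocking POS-1 binding to fluorescent RNA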
T3 sequence (G5EF15 whole entry): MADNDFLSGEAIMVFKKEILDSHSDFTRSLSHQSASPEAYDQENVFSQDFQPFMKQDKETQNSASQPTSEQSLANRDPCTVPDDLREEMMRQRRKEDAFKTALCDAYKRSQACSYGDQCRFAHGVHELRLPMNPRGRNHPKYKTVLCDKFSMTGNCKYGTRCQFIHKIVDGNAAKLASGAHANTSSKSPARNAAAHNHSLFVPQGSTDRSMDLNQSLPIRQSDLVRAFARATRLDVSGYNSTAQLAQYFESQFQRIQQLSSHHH

[17] = cells; assay type: functional

Chain of Paired box protein Pax-8 (Q06710 whole entry): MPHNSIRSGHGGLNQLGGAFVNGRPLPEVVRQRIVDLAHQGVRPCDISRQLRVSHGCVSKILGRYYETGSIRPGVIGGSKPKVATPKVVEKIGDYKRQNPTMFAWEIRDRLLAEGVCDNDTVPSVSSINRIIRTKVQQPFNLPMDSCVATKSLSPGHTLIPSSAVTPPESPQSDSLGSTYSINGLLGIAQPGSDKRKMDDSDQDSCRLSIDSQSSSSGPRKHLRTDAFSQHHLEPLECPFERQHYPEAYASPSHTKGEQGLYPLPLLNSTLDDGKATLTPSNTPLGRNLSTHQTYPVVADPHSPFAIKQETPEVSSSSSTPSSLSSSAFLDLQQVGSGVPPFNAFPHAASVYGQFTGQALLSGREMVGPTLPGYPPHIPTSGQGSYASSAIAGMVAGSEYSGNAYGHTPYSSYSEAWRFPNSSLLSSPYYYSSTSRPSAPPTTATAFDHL

C[C@@H]1CN([C@@H](C)CO)C(=O)Cc2cc(NC(=O)c3ccncc3)ccc2O[C@@H]1CN(C)Cc1ccc(-c2ccccc2)cc1
AC50 [1]: 22.3 µM (active)

CC(c1ccccc1)N1C(=O)/C(=C/c2ccncc2)SC1=S (stereo not drawn)
AC50 [2]: 19 µM (active)

Cc1nc2ccccc2nc(C)c1=NO
AC50 [3]: 17.8 µM (inconclusive) | AC50 [4]: inconclusive

COc1cccc(OCCCOc2ccccc2C(C)C)c1
AC50 [5]: 25.1 µM (inconclusive) | AC50 [3]: 22.4 µM (inconclusive) | AC50 [6]: 0.0178 µM (inconclusive)

COC(=O)c1ccc(/C=C/c2c(-c3ccc(OC)cc3)oc3ccccc23)cc1
AC50 [2]: 2.47 µM (active)

CCC(NC(=O)C1(C)CC1(Br)Br)c1ccc(C)cc1 (stereo not drawn)
AC50 [7]: 7.94 µM (inconclusive) | AC50 [3]: 20 µM (inconclusive)

COc1ccc(S(=O)(=O)N2CCN(Cc3ccc4c(c3)OCO4)CC2)c2ccccc12
EC50 [8]: > 112 µM (not active) | EC50 [9]: > 112 µM (not active)

Cc1ccccc1NC(=O)c1cc(S(=O)(=O)N2CCOCC2)cn1C
EC50 [8]: > 112 µM (not active) | EC50 [9]: > 112 µM (not active)

O=C(CCc1ccccc1)NCc1cccnc1
AC50 [5]: 1 µM (inconclusive) | AC50 [3]: 31.6 µM (inconclusive)

CC(=O)Nc1ccc(S(=O)(=O)N2CCC(C(=O)NCc3ccco3)CC2)cc1
EC50 [8]: > 112 µM (not active) | EC50 [9]: > 112 µM (not active)

Cc1cccc(NC(=O)CCCNC(=O)c2ccc(Cl)cc2)n1
EC50 [8]: 16 µM (active) | EC50 [9]: > 112 µM (not active)

Cc1ccnc(N/C=C(/NC(=O)c2ccccc2)C(=O)N/N=C\c2ccc(F)cc2)n1
AC50 [10]: > 70 µM (inactive) | AC50 [11]: 26.8 µM (active)

COc1ccc(C(=O)/C=C2/C(=O)Nc3ccccc32)cc1
EC50 [12]: > 120 µM (not active) | EC50 [13]: 18.1 µM (active) | AC50 [2]: 4.39 µM (active) | EC50 [14]: 17.1 µM (active)

CCOC(=O)c1cc(-c2ccccc2)sc1NC(=S)Nc1cc(C)ccn1
AC50 [5]: 5.62 µM (inconclusive) | EC50 [15]: 0.77 µM (inconclusive) | EC50 [16]: 11.1 µM (inconclusive) | AC50 [3]: 3.55 µM (inconclusive) | AC50 ([4]; read-out: AC50): 6.31 µM (inconclusive)

CC(C)c1ccc(/C=N/NC(=O)c2ccccn2)cc1
AC50 [2]: 19.5 µM (active) | IC50 [17]: 6.08 µM (active)

O=C(N[C@@H](c1ccccc1)[C@@H]1C[C@H]1C(=O)NCc1ccccn1)OCc1ccccc1
AC50 [5]: 20 µM (inconclusive) | AC50 [3]: 10 µM (inconclusive)

O=C(c1cnc2ccc3ccccc3c2c1)c1cc(F)ccc1O
AC50 [2]: 0.562 µM (active)

c1ccc2[nH]c(-c3cscn3)nc2c1 [THIABENDAZOLE]
EC50 [12]: 18.7 µM (active) | AC50 [7]: 10 µM (inconclusive) | EC50 [13]: 14.3 µM (active) | EC50 [14]: 23.7 µM (active) | AC50 [3]: 0.126 µM (active) | AC50 ([4]; read-out: AC50): 7.94 µM (inconclusive)

COc1ccc(C(=O)Nc2ccccc2C(=O)Nc2cccnc2)cc1
EC50 [8]: 6.59 µM (active) | EC50 [9]: 1.61 µM (active)

N=C(NOC(=O)c1ccccc1Cl)c1cccnc1
EC50 [8]: > 112 µM (not active) | EC50 [9]: 23.6 µM (active)

C[C@@H]1CCCCO[C@H](CN(C)Cc2ccc(C(F)(F)F)cc2)[C@H](C)CN([C@@H](C)CO)C(=O)c2cc(NC(=O)Nc3ccc(F)cc3)ccc2O1
AC50 [1]: 8.21 µM (active)

CCc1ccc2c(c1)cc(CN(C(S)=Nc1cccc(C)c1)C1CC1)c1nnnn12
AC50 [5]: 2.82 µM (inconclusive) | AC50 [3]: 12.6 µM (inconclusive)

O=C(Nc1ccccc1)OC[C@H](CN1CCCCC1)OC(=O)Nc1ccccc1
AC50 [3]: 12.6 µM (inconclusive) | AC50 ([4]; read-out: AC50): 5.01 µM (inconclusive)

COC(=O)[C@@]1(Cc2ccc(F)cc2)[C@H]2c3cc(C(=O)N4CCCC4)n(Cc4cccc5ccccc45)c3C[C@H]2CN1C(=O)c1ccccc1
AC50 [3]: 15.8 µM (inconclusive) | AC50 ([4]; read-out: AC50): 7.94 µM (inconclusive)
